# Key:
# Assay type in all cases: in vivo, human
# [1] = test system: patients with essential tremor; experiment: T-CALM: Clinical Global Impression of Improvement (CGI-I); settings: Day 28; N = 39
# From the text: The Clinical Global Impressions Scale (CGI) was developed for use in NIMH-sponsored clinical trials to provide a brief, stand-alone assessment of the clinician's view of a patient's global functioning before and after initiating a study medication (Guy (ed.), ECDEU Assessment Manual for Psychopharmacology. Rockville, MD: US Department of Health, Education, and Welfare Public Health Service Alcohol, Drug Abuse, and Mental Health Administration; 1976). The CGI is a summary measure that takes into account all available information, including knowledge of the patient's history, psychosocial circumstances, symptoms, behavior, and the impact of the symptoms on the patient's ability to function. The CGI has two forms—the CGI-Severity, which rates illness severity at baseline, and the CGI-Improvement, which rates change from baseline.
# The CGI-I consists of a single 7-point rating of total improvement or change from baseline CGI-S, regardless of whether or not the change is due entirely to drug treatment.
# Treatment success as measured by CGI-I was summarized using descriptive statistics.
# The Clinical Global Impressions Scale (CGI) generates a clinician's perception of a patient's functioning prior to and after study medication (see, e.g., Guy, Assessment Manual for Psychopharmacology. Rockville, MD: Department of Health, Education, and Welfare Public Health Service Alcohol, Drug Abuse, and Mental Health Administration, 1976). The CGI overall score considers patient history, psychosocial situations, symptoms and behavior with respect to the ability to function. The CGI-Improvement (CGI-I) will involve a single 7-point rating of total improvement or change from baseline CGI-Severity (CGI-S).
# [2] = test system: patients with essential tremor; experiment: T-CALM: Patient Global Impression of Change (PGIC); settings: for PGIC score, LS mean (SE) / PGIC score, LS mean difference from placebo (95% CI): ANCOVA
# From the text: Treatment success as measured by PGIC was summarized using descriptive statistics.
# The Patient Global Impression of Change (PGIC) will quantify a patient's impression of improvement or decline over time with respect to ET treatment (see, e.g., Guy, Assessment Manual for Psychopharmacology. Rockville, MD: Department of Health, Education, and Welfare Public Health Service Alcohol, Drug Abuse, and Mental Health Administration, 1976). The patient will use the PGIC scale to assess current health status versus initiation of treatment and calculate the difference.
# [3] = test system: patients with essential tremor; experiment: T-CALM: Kinesia ONE accelerometry score
# From the text: Kinesia One platform is deployed in T-CALM as a digital marker of tremor severity. Kinesia One is FDA cleared for monitoring Parkinson's motor symptom severity with only limited data on assessment of tremor in ET patients. The algorithmically derived score was developed primarily in Parkinson's disease algorithms and has limited validation in ET (see, e.g., Hoffman et al., 2011 Conf Proc IEEE Eng Med Biol Soc. 2011:4378-81). The Kinesia One device is placed on the index finger of each ET patient and worn in the clinic after completion of the TETRAS Performance subscale. Four tasks are performed by the patient on the left and right sides to assess resting, postural, kinetic and lateral wing beating tremor. The Kinesia One score change in score from baseline to day 28 is evaluated as a secondary efficacy endpoint. The Kinesia One data is also utilized for exploratory analysis of efficacy on the change from baseline to day 15 for accelerometry score and for change from baseline on amplitude measures for days 15 and 28. Consistent finger sensor placement and consistent task execution are critical factors for valid Kinesia One scores.
# Both sets of scores were statistically analyzed.
# [4] = Healthy volunteer PK studies PN001/PN002 with IR capsules
# [5] = Average of the single-dose studies (dose 16)
smiles,measurement,setting,value
CC(C)c1ccc(CC(=O)N[C@H](C)c2ccc(OCC(F)(F)F)cn2)cc1 [CX-8998],"CGI-I category −2 Much worse, number (%) of patients",[1],0
same,"CGI-I category −3 Very much worse, number (%) of patients",[1],0
same,"PGIC score 0-no change: subjects, number (%)",[2]; Day 15,11 (28%)
same,"PGIC score 1-minimally improved: subjects, number (%)",[2]; Day 15,17 (44%)
same,"PGIC score 2-much improved: subjects, number (%)",[2]; Day 15,8 (21%)
same,"PGIC score 3-very much improved: subjects, number (%)",[2]; Day 15,1 (3%)
same,"PGIC score (rescaled −3 to 3), Mean (SD)",[2]; Day 15,1 (1.0)
same,"PGIC score (rescaled −3 to 3), Median (minimum, maximum)",[2]; Day 15,"1 (−2, 3)"
same,"PGIC score −1-minimally worse: subjects, number (%)",[2]; Day 15,1 (3%)
same,"PGIC score −2-much worse: subjects, number (%)",[2]; Day 15,1 (3%)
same,"PGIC score −3-very much worse: subjects, number (%)",[2]; Day 15,0
same,"PGIC category 0 No change, number (%) of patients","[2]; Day 15, N = 39",11 (28%)
same,"PGIC category 1 Minimally improved, number (%) of patients","[2]; Day 15, N = 39",17 (44%)
same,"PGIC category 2 Much improved, number (%) of patients","[2]; Day 15, N = 39",8 (21%)
same,"PGIC category 3 Very much improved, number (%) of patients","[2]; Day 15, N = 39",1 (3%)
same,"PGIC category −1 Minimally worse, number (%) of patients","[2]; Day 15, N = 39",1 (3%)
same,"PGIC category −2 Much worse, number (%) of patients","[2]; Day 15, N = 39",1 (3%)
same,"PGIC category −3 Very much worse, number (%) of patients","[2]; Day 15, N = 39",0
same,"PGIC: No Change, number of subjects","[2]; Day 15, total 39",11
same,"PGIC: Worsened, number of subjects","[2]; Day 15, total 39",2
same,"PGIC score, LS mean (SE)",[2]; Day 15,0.9 (0.17)
same,"PGIC score, LS mean difference from placebo (95% CI)",[2]; Day 15,"0.7 (0.2, 1.1)"
same,"PGIC score 0-no change: subjects, number (%)",[2]; Day 28,14 (36%)
same,"PGIC score 1-minimally improved: subjects, number (%)",[2]; Day 28,10 (26%)
same,"PGIC score 2-much improved: subjects, number (%)",[2]; Day 28,7 (18%)
same,"PGIC score 3-very much improved: subjects, number (%)",[2]; Day 28,3 (8%)
same,"PGIC score (rescaled −3 to 3), Mean (SD)",[2]; Day 28,1 (1.3)
same,"PGIC score (rescaled −3 to 3), Median (minimum, maximum)",[2]; Day 28,"1 (−3, 3)"
same,"PGIC score −1-minimally worse: subjects, number (%)",[2]; Day 28,1 (3%)
same,"PGIC score −2-much worse: subjects, number (%)",[2]; Day 28,1 (3%)
same,"PGIC score −3-very much worse: subjects, number (%)",[2]; Day 28,1 (3%)
same,"PGIC: Improved, number of subjects","[2]; Day 28, total 37",20
same,"PGIC: No Change, number of subjects","[2]; Day 28, total 37",14
same,"PGIC: Worsened, number of subjects","[2]; Day 28, total 37",3
same,"PGIC score, LS mean (SE)",[2]; Day 28,0.8 (0.19)
same,"PGIC score, LS mean difference from placebo (95% CI)",[2]; Day 28,"0.4 (−0.1, 0.9)"
same,"PGIC category 0 No change, number (%) of patients","[2]; Day 28, N = 39",14 (36%)
same,"PGIC category 1 Minimally improved, number (%) of patients","[2]; Day 28, N = 39",10 (26%)
same,"PGIC category 2 Much improved, number (%) of patients","[2]; Day 28, N = 39",7 (18%)
same,"PGIC category 3 Very much improved, number (%) of patients","[2]; Day 28, N = 39",3 (8%)
same,"PGIC category −1 Minimally worse, number (%) of patients","[2]; Day 28, N = 39",1 (3%)
same,"PGIC category −2 Much worse, number (%) of patients","[2]; Day 28, N = 39",1 (3%)
same,"PGIC category −3 Very much worse, number (%) of patients","[2]; Day 28, N = 39",1 (3%)
same,"Kinesia ONE total score, Median",[3]; Day 15,7.9
same,"Kinesia ONE total score, change from baseline, Median",[3]; Day 15,−1.1
same,Kinesia ONE score vs placebo,[3]; Day 15 and Day 28,did not show a significant difference
same,"Kinesia ONE total score, Median",[3]; Day 28,7.8
same,"Kinesia ONE total score, change from baseline, Median",[3]; Day 28,−0.7
same,AUC0-24,[4]; [5],8.22 µM·h
same,AUCinf,[4]; [5],13.2 µM·h
same,Cmax,[4]; [5],1060 nM
same,AUC0-24,"[4]; PN001 Part 1, 16 mg, 1 dose",8.52 µM·h
same,AUCinf,"[4]; PN001 Part 1, 16 mg, 1 dose",12.5 µM·h
same,AUC0-24,"[4]; PN001 Part 2, 18 mg, 1 dose",9.93 µM·h
same,AUCinf,"[4]; PN001 Part 2, 18 mg, 1 dose",14.6 µM·h
same,Cmax,"[4]; PN001 Part 2, 18 mg, 1 dose, healthy volunteers",1180 nM
same,AUC0-24,"[4]; PN002 Part 1, 18 mg, 1 dose",9.44 µM·h
same,AUCinf,"[4]; PN002 Part 1, 18 mg, 1 dose",18.5 µM·h
same,Cmax,"[4]; PN002 Part 1, 18 mg, 1 dose, healthy volunteers",1330 nM
same,AUC0-24,"[4]; PN002 Part 2, 12 mg, 1 dose",4.99 µM·h
same,AUCinf,"[4]; PN002 Part 2, 12 mg, 1 dose",7.31 µM·h
same,Cmax,"[4]; PN002 Part 2, 12 mg, 1 dose, healthy volunteers",798 nM
same,dose proportionality of plasma profiles,"[4]; immediate release capsules, human subjects",dose proportional in the 2-18 mg dose range

# Source: patent US12383539B2 (Cavion, Inc., priority 2018, dated 2025)
